From patent US8183351B2, “Avermectin derivatives” (Bayer Cropscience AG, priority 2006, dated 2012)

Columns and labels:
Type in all cases: in vivo
Lucilia cuprina larvae = experiment: Lucilia cuprina test (LUCICU); conditions: treated horsemeat
Protocol: Lucilia cuprina Test (LUCICU)
Description for Examples A and B
(§1) • Solvent: Dimethyl sulphoxide
To produce a suitable preparation of active compound, 1 part by weight of active compound is mixed with the stated amount of water and the concentrate is diluted with water to the desired concentration.
Containers containing horsemeat treated with the active compound preparation of the desired concentration are populated with Lucilia cuprina larvae.
After the desired period of time, the kill in % is determined. 100% means that all larvae have been killed; 0% means that none of the larvae have been killed.
(§2) In this test, for example, the following compounds of the preparation examples show good activity: see table

[1] = tested on: larvae of the mustard beetle (Phaedon cochleariae); experiment: Phaedon test (PHAECO spray treatment); conditions: 4 ppm active compound, sprayed Chinese cabbage discs
Protocol: Phaedon Test (PHAECO Spray Treatment)
• Solvents: 78 parts by weight of acetone • 1.5 parts by weight of dimethylformamide • Emulsifier: 0.5 part by weight of alkylaryl polyglyycol ether
After the desired period of time, the effect in % is determined. 100% means that all beetle larvae have been killed; 0% means that none of the beetle larvae have been killed.

adult Musca domestica = experiment: Musca domestica test (MUSCDO); conditions: Example C, treated sponge
Protocol: Musca domestica Test (MUSCDO)
as §1
To produce a suitable preparation of active compound, 1 part by weight of active compound is mixed with the stated amount of water, and the concentrate is diluted with water to the desired concentration.
Containers containing a sponge treated with the preparation of active compound of the desired concentration are populated with adult Musca domestica.
After the desired period of time, the kill in % is determined. 100% means that all flies have been killed; 0% means that none of the flies have been killed.
as §2

[2] = tested on: caterpillars of the army worm (Spodoptera frugiperda); experiment: Spodoptera frugiperda test (SPODFR spray treatment); conditions: Example I; 4 ppm active compound; sprayed maize leaf discs
Protocol: Spodoptera frugiperda Test (SPODFR Spray Treatment)
• Solvents: 78.0 parts by weight of acetone • 1.5 parts by weight of dimethylformamide • Emulsifier: 0.5 part by weight of alkylaryl polyglyycol ether
After the desired period of time, the effect in % is determined. 100% means that all caterpillars have been killed; 0% means that none of the caterpillars have been killed.

[3] = tested on: unfed adult fleas (Ctenocephalides felis); experiment: Ctenocephalides felis; oral (CTECFE); conditions: Example J; 4 ppm active compound in citrated cattle blood, oral uptake
Protocol: Ctenocephalides felis; Oral (CTECFE)
as §1
To produce a suitable preparation of active compound, 1 part by weight of active compound is mixed with the stated amount of solvent. Part of the concentrate is diluted with citrated cattle blood, and the desired concentration is prepared.
20 unfed adult fleas (Ctenocephalides felis) are placed into a chamber whose top and bottom ends are closed with gauze. A metal cylinder whose bottom end is closed with parafilm is placed onto the chamber. The cylinder contains the blood/active compound preparation, which can be taken up by the fleas through the parafilm membrane. The blood is warmed to 37° C., but the flea chamber is at room temperature.
After the desired period of time, the kill in % is determined. 100% means that all fleas have been killed; 0% means that none of the fleas have been killed.
as §2

[4] = Example A, 0.8 ppm active compound
[5] = Example B, 0.16 ppm active compound

| SMILES | Kill rate in % after 2 days (Lucilia cuprina larvae; [4]) [%] | also measured |
| --- | --- | --- |
| CC[C@H](C)[C@H]1OC2(C=C[C@@H]1C)C[C@@H]1C[C@@H](C/C=C(\C)[C@@H](OC3CC(OC)C(OC(=O)Cc4c(C)nn(C)c4C)C(C)O3)[C@@H](C)/C=C/C=C3\CO[C@@H]4[C@H](O)C(C)=CC(C(=O)O1)[C@]34O)O2 (stereo partly drawn) [Example 26] | 100 |  |
| CC[C@H](C)[C@H]1OC2(C=C[C@@H]1C)C[C@@H]1C[C@@H](C/C=C(\C)[C@@H](OC3CC(OC)C(OC(=O)C(C)(C)n4cncn4)C(C)O3)[C@@H](C)/C=C/C=C3\CO[C@@H]4[C@H](O)C(C)=CC(C(=O)O1)[C@]34O)O2 (stereo partly drawn) [Example 20] | 100 | Kill rate in % after 7 days ([1]; Example D): 80% |
| CCC(C)C(=O)OC1C(C)OC(O[C@@H]2/C(C)=C/C[C@@H]3C[C@@H](CC4(C=C[C@H](C)[C@@H]([C@@H](C)CC)O4)O3)OC(=O)C3C=C(C)[C@@H](O)[C@H]4OC/C(=C\C=C\[C@@H]2C)[C@@]34O)CC1OC (stereo partly drawn) [Example 9] | 100 |  |
| CC[C@H](C)[C@H]1OC2(C=C[C@@H]1C)C[C@@H]1C[C@@H](C/C=C(\C)[C@@H](OC3CC(OC)C(OC(=O)C(C)(C)n4nc(C)cc4C)C(C)O3)[C@@H](C)/C=C/C=C3\CO[C@@H]4[C@H](O)C(C)=CC(C(=O)O1)[C@]34O)O2 (stereo partly drawn) [Example 19] |  | Kill rate in % after 2 days (Lucilia cuprina larvae; [5]): 100% |
| CC[C@H](C)[C@H]1OC2(C=C[C@@H]1C)C[C@@H]1C[C@@H](C/C=C(\C)[C@@H](OC3CC(OC)C(OC(=O)C4CCCC4)C(C)O3)[C@@H](C)/C=C/C=C3\CO[C@@H]4[C@H](O)C(C)=CC(C(=O)O1)[C@]34O)O2 (stereo partly drawn) [Example 16] | 100 |  |
| CC[C@H](C)[C@H]1OC2(C=C[C@@H]1C)C[C@@H]1C[C@@H](C/C=C(\C)[C@@H](OC3CC(OC)C(OC(=O)C4(C)CC4)C(C)O3)[C@@H](C)/C=C/C=C3\CO[C@@H]4[C@H](O)C(C)=CC(C(=O)O1)[C@]34O)O2 (stereo partly drawn) [Example 15] | 100 |  |
| CC[C@H](C)[C@H]1OC2(C=C[C@@H]1C)C[C@@H]1C[C@@H](C/C=C(\C)[C@@H](OC3CC(OC)C(OC(=O)CC(C)C)C(C)O3)[C@@H](C)/C=C/C=C3\CO[C@@H]4[C@H](O)C(C)=CC(C(=O)O1)[C@]34O)O2 (stereo partly drawn) [Example 4] | 100 |  |
| CCC(C)C1OC2(C=CC1C)CC1CC(CC=C(C)C(OC3CC(OC)C(OC(=O)C(C)NC(C)=O)C(C)O3)C(C)C=CC=C3COC4C(O)C(C)=CC(C(=O)O1)C34O)O2 (mixture of isomers) [Example 54] | 80 | Kill rate in % after 7 days ([1]; Example G): 100% |
| CC[C@H](C)[C@H]1OC2(C=C[C@@H]1C)C[C@@H]1C[C@@H](C/C=C(\C)[C@@H](OC3CC(OC)C(OC(=O)C(C)C)C(C)O3)[C@@H](C)/C=C/C=C3\CO[C@@H]4[C@H](O)C(C)=CC(C(=O)O1)[C@]34O)O2 (stereo partly drawn) [Example 98, 4′-O-Isobutyryl-avermectin B1 monosaccharide] | 95 |  |
| CC[C@H](C)[C@H]1OC2(C=C[C@@H]1C)C[C@@H]1C[C@@H](C/C=C(\C)[C@@H](OC3CC(OC)C(OC(=O)Cc4sccc4C)C(C)O3)[C@@H](C)/C=C/C=C3\CO[C@@H]4[C@H](O)C(C)=CC(C(=O)O1)[C@]34O)O2 (stereo partly drawn) [Example 27] | 100 |  |
| CC[C@H](C)[C@H]1OC2(CC[C@@H]1C)C[C@@H]1C[C@@H](C/C=C(\C)[C@@H](OC3CC(OC)C(OC(=O)Cn4ccnn4)C(C)O3)[C@@H](C)/C=C/C=C3\CO[C@@H]4[C@H](O)C(C)=CC(C(=O)O1)[C@]34O)O2 (stereo partly drawn) [Example 18] |  | Kill rate in % after 2 days (Lucilia cuprina larvae; [5]): 100%; Kill rate in % after 7 days ([1]; Example G): 100% |
| CCC(=O)OC1C(C)OC(O[C@@H]2/C(C)=C/C[C@@H]3C[C@@H](CC4(C=C[C@H](C)[C@@H]([C@@H](C)CC)O4)O3)OC(=O)C3C=C(C)[C@@H](O)[C@H]4OC/C(=C\C=C\[C@@H]2C)[C@@]34O)CC1OC (stereo partly drawn) [Example 6] | 98 |  |
| CC[C@H](C)[C@H]1OC2(C=C[C@@H]1C)C[C@@H]1C[C@@H](C/C=C(\C)[C@@H](OC3CC(OC)C(OC(=O)C(C)(C)C)C(C)O3)[C@@H](C)/C=C/C=C3\CO[C@@H]4[C@H](O)C(C)=CC(C(=O)O1)[C@]34O)O2 (stereo partly drawn) [Example 5] | 100 |  |
| CC[C@H](C)[C@H]1OC2(C=C[C@@H]1C)C[C@@H]1C[C@@H](C/C=C(\C)[C@@H](OC3CC(OC)C(OC(=O)Cc4cccs4)C(C)O3)[C@@H](C)/C=C/C=C3\CO[C@@H]4[C@H](O)C(C)=CC(C(=O)O1)[C@]34O)O2 (stereo partly drawn) [Example 13] |  | Kill rate in % after 2 days (adult Musca domestica; 0.8 ppm active compound): 50% |
| CC[C@H](C)[C@H]1OC2(C=C[C@@H]1C)C[C@@H]1C[C@@H](C/C=C(\C)[C@@H](OC3CC(OC)C(OC(=O)Cc4ccsc4)C(C)O3)[C@@H](C)/C=C/C=C3\CO[C@@H]4[C@H](O)C(C)=CC(C(=O)O1)[C@]34O)O2 (stereo partly drawn) [Example 12] | 100 |  |
| CC[C@H](C)[C@H]1OC2(C=C[C@@H]1C)C[C@@H]1C[C@@H](C/C=C(\C)[C@@H](OC3CC(OC)C(OC(=O)Cc4nonc4C)C(C)O3)[C@@H](C)/C=C/C=C3\CO[C@@H]4[C@H](O)C(C)=CC(C(=O)O1)[C@]34O)O2 (stereo partly drawn) [Example 25] | 95 |  |
| CC[C@H](C)[C@H]1OC2(C=C[C@@H]1C)C[C@@H]1C[C@@H](C/C=C(\C)[C@@H](OC3CC(OC)C(OC(=O)Cc4ccc(Cl)cc4)C(C)O3)[C@@H](C)/C=C/C=C3\CO[C@@H]4[C@H](O)C(C)=CC(C(=O)O1)[C@]34O)O2 (stereo partly drawn) [Example 94] |  | Kill rate in % after 2 days (adult Musca domestica; 100 ppm active compound): 80% |
| CC[C@H](C)[C@H]1OC2(C=C[C@@H]1C)C[C@@H]1C[C@@H](C/C=C(\C)[C@@H](OC3CC(OC)C(OC(=O)Cc4nc(-c5cccs5)sc4C)C(C)O3)[C@@H](C)/C=C/C=C3\CO[C@@H]4[C@H](O)C(C)=CC(C(=O)O1)[C@]34O)O2 (stereo partly drawn) [Example 91] |  | Kill rate in % after 2 days (adult Musca domestica; 100 ppm active compound): 90% |
| CC[C@H](C)[C@H]1OC2(C=C[C@@H]1C)C[C@@H]1C[C@@H](C/C=C(\C)[C@@H](OC3CC(OC)C(OC(=O)C(C)N4CCOCC4)C(C)O3)[C@@H](C)/C=C/C=C3\CO[C@@H]4[C@H](O)C(C)=CC(C(=O)O1)[C@]34O)O2 (stereo partly drawn) [Example 52, 4′-O-(2-morpholin-4-ylpropanoyl)-avermectin B1 monosaccharide] | 100 | Kill rate in % after 7 days ([1]; Example G): 100%; Kill rate in % after 5 days [2]: 100%; Kill rate in % after 2 days [3]: 50% |
| CC[C@H](C)[C@H]1OC2(C=C[C@@H]1C)C[C@@H]1C[C@@H](C/C=C(\C)[C@@H](OC3CC(OC)C(OC(=O)C(C)n4cccn4)C(C)O3)[C@@H](C)/C=C/C=C3\CO[C@@H]4[C@H](O)C(C)=CC(C(=O)O1)[C@]34O)O2 (stereo partly drawn) [Example 48] | 100 | Kill rate in % after 2 days (adult Musca domestica; 100 ppm active compound): 100%; Kill rate in % after 7 days ([1]; Example G): 100%; Kill rate in % after 5 days [2]: 100% |
| CCC(C)C1OC2(C=CC1C)CC1CC(CC=C(C)C(OC3CC(OC)C(OC(=O)C(C)n4nc(OC)n(C)c4=O)C(C)O3)C(C)C=CC=C3COC4C(O)C(C)=CC(C(=O)O1)C34O)O2 (mixture of isomers) [Example 100] | 100 |  |
| CCC(C)C1OC2(C=CC1C)CC1CC(CC=C(C)C(OC3CC(OC)C(OC(=O)C4C(C=C(Cl)Cl)C4(C)C)C(C)O3)C(C)C=CC=C3COC4C(O)C(C)=CC(C(=O)O1)C34O)O2 (stereo not drawn) [Example 89] |  | Kill rate in % after 2 days (adult Musca domestica; 100 ppm active compound): 100% |
| CC[C@H](C)[C@H]1OC2(C=C[C@@H]1C)C[C@@H]1C[C@@H](C/C=C(\C)[C@@H](OC3CC(OC)C(OC(=O)CN(C)C(=O)OC(C)(C)C)C(C)O3)[C@@H](C)/C=C/C=C3\CO[C@@H]4[C@H](O)C(C)=CC(C(=O)O1)[C@]34O)O2 (stereo partly drawn) [Example 55] | 90 | Kill rate in % after 2 days (adult Musca domestica; 100 ppm active compound): 90% |
| CCC(C)C1OC2(C=CC1C)CC1CC(CC=C(C)C(OC3CC(OC)C(OC(=O)C(=NOC)c4ccc(Cl)cc4Cl)C(C)O3)C(C)C=CC=C3COC4C(O)C(C)=CC(C(=O)O1)C34O)O2 (stereo not drawn) [Example 90] |  | Kill rate in % after 2 days (adult Musca domestica; 100 ppm active compound): 100% |
| CC[C@H](C)[C@H]1OC2(C=C[C@@H]1C)C[C@@H]1C[C@@H](C/C=C(\C)[C@@H](OC3CC(OC)C(OC(=O)C4CC4)C(C)O3)[C@@H](C)/C=C/C=C3\CO[C@@H]4[C@H](O)C(C)=CC(C(=O)O1)[C@]34O)O2 (stereo partly drawn) [Example 1, 4′-O-(cyclopropylcarbonyl)-avermectin B1 monosaccharide] | 100 | Kill rate in % after 7 days ([1]; Example D): 90% |
